Bridge positions count the residues as written; N and C are the ends. Square brackets hold non-standard residues; d marks the D form. Peptide text beside a SMILES is read from it. * marks the point of attachment. Lys(N3) = [N-]=[N+]=NCCCC[C@H](N)C(=O)O; Azidoacetyl = [N-]=[N+]=NCC(=O)*; NMeF = CN[C@@H](Cc1ccccc1)C(=O)O; NMeT = CN[C@H](C(=O)O)[C@@H](C)O; NMeL = CN[C@@H](CC(C)C)C(=O)O; dNMeL = CN[C@H](CC(C)C)C(=O)O; NMeK = CN[C@@H](CCCCN)C(=O)O; NMeV = CN[C@H](C(=O)O)C(C)C
Legend:
[1] = Serum stability assay in mouse serum; format: in vitro ADME
Protocol: Serum stability assay. Time course degradation in mouse serum was evaluated for peptides Lin0, Cyc0, Nmet0 and Nmet9. Compounds were incubated in mouse serum at a concentration of 1.0 mM to a total of 200 μL at 37 °C. At each time point (0, 15, 30, 60 min), 4 0 μL of the solution was aliquoted and diluted in a 1:1 solution o f H2O/CH3CN (101 μL) containing trichloroacetic acid (9 μL) and 100 μM of internal standard Fm o c -L-phenylalanine. This mixture was incubated in ice for 5 min to precipitate serum proteins.
The samples were then centrifuged at 21,000×g for 5 min. 140 μL of the supernatant was then transferred to a filter tube and centrifuged again at 21,000× g for 5 min to filter. 110 μL of the filtrate was then analyzed using Phenomenex Luna 5 µm C8(2) on RP-HPLC; gradient elution in H2O/CH 3CN with 0.1% TFA at 1 mL/min. Peptide identity was confirmed via peak collection and subsequent matrix-assisted laser desorption ionization time-of-flight (MALDI-TOF) mass spectroscopy (Shimadzu 8020). To eliminate variations in the overall signal intensity, area under the curve (AUC) for the peptides of interest at each time point was normalized to the AUC of the internal standard Fm o c -L-phenylalanine, the concentration of which was predetermined. These normalized AUC values were then further normalized to the “0 min” time point which was set to 100%. […]

Msm = format: cell-based, Mycobacterium smegmatis; settings: against Msm; for MIC value: 48 h, three biological replicates
Protocol: Minimum inhibitory concentration (MIC) assay. Msm cells were inoculated from the glycerol stock to the according media and grown for 24 hours until 0.5- 0.6 OD. Testing peptides were dissolved in the 7H9 growth media mentioned above and made into serial dilutions from 128 µM. 200 µL of each concentration was added to a deep well 96-well plate – with each concentration added in triplicates. The cells were diluted […] to OD of around 0.05 with fresh 7H9 growth media. […] of diluted cells were added to the deep well plate each well and mixed well with the peptide solution. The plate was covered by an adhesive porous film and incubated at 37 °C with shaking at 250 rpm for 48 h. The contents from each well were then transferred to a flat-bottom 96-well plate for MIC value determination. MIC values were determined both visually and readings of OD (wells OD < 0.1) from a Biotek Synergy H1 microplate reader at 600 nm.

Msm cells = settings: 25 μM TetD labeling; microscopy and EtBr accumulation/efflux
Protocol: Ethidium bromide (EtBr) whole-cell accumulation assay. To a 96-well plate, 90 µL of
T etD -modified Msm cells were added in triplicate. Next, 5 µL of 1 mM peptide stock
solutions were added to yield a final concentration of 50 µM. The volume in each well was
made up to 100 µL using PBS. To the blank and PBS control wells, 10 µL of PBS was
added at this point. For the blank wells, 90 µL of unlabeled cells were added in triplicate.
The plates were then incubated at 37 °C for the same duration as the corresponding PAC -
MAN assay incubation duration for that library. The cells were centrifuged for 2 min at
3000× g, and the supernatant was discarded. The pellets were then washed with 100 µL
PBST twice and finally resuspended in 100 µL of PBST. 95 µL of these cells were then
transferred to corresponding wells in a 96 -well, black, flat-bottomed plate. To each well,
5 µL of 100 µM EtBr (5 µM final) was added. The fluorescent intensities were measured
by a Biotek Synergy H1 microplate reader 60 m post -treatment with EtBr, with continuous
orbital shaking. Wavelengths: ethidium bromide, excitation 530 nm/emission 590 nm.

SMILES	MIC value (Msm)	further results
CC(C)C[C@@H](C(=O)N(C)[C@@H](CCCCN)C(=O)N(C)[C@@H](CC(C)C)C(=O)N(C)[C@@H](Cc1ccccc1)C(N)=O)N(C)C(=O)[C@H](CCCCN)N(C)C(=O)CN=[N+]=[N-] [Nmet5] (Azidoacetyl-[NMeK][NMeL][NMeK][NMeL][NMeF]-NH2)		serum stability (in words) ([1]; mouse serum, 37 °C, over 1 h): considerably greater serum stability than peptide Nmet0
CC(C)C[C@H](NC(=O)[C@@H]1CCCN1C(=O)[C@H](CC(C)C)NC(=O)[C@H]([C@@H](C)O)N(C)C(=O)[C@@H]1CCCN1C(=O)[C@H](C(C)C)N(C)C(=O)CN=[N+]=[N-])C(=O)N(C)[C@H](C(=O)N1CCC[C@H]1C(=O)N(C)[C@H](CC(C)C)C(=O)NCC(N)=O)C(C)C [grisMeLin] (Azidoacetyl-[NMeV]P[NMeT]LPL[NMeV]P[dNMeL]G-NH2)	> 64 µM	fold increase in MIC value relative to grisMeCyc (Msm; loss of macrocyclization): > 32 fold
C[C@H](NC(=O)CCC(=O)N1Cc2ccccc2C#Cc2ccccc21)C(=O)N[C@H](CCC(=O)N[C@@H](CCCCN)C(=O)N[C@H](C)C(=O)O)C(N)=O [TetD]		cell morphology and cell envelope integrity after labeling (Msm cells): no significant changes in cell morphology or cell envelope integrity
CC(C)C[C@@H]1NC(=O)[C@@H]2CCCN2C(=O)[C@H](CC(C)C)NC(=O)[C@@H](NC(=O)[C@@H]2CCCN2C(=O)[C@@H](NC(=O)CN=[N+]=[N-])C(C)C)[C@@H](C)OC(=O)CNC(=O)[C@@H](CC(C)C)NC(=O)[C@@H]2CCCN2C(=O)[C@H](C(C)C)NC1=O [grisCyc] (Azidoacetyl-VPTLPLVP[dL]G; ester 3-C)	> 64 µM	
CC(C)C[C@@H]1NC(=O)[C@@H]2CCCN2C(=O)[C@H](CC(C)C)NC(=O)[C@@H](N(C)C(=O)[C@@H]2CCCN2C(=O)[C@H](C(C)C)N(C)C(=O)CN=[N+]=[N-])[C@@H](C)OC(=O)CNC(=O)[C@@H](CC(C)C)N(C)C(=O)[C@@H]2CCCN2C(=O)[C@H](C(C)C)N(C)C1=O [grisMeCyc] (Azidoacetyl-[NMeV]P[NMeT]LPL[NMeV]P[dNMeL]G; ester 3-C)	2 µM	
CC(C)C[C@H](NC(=O)[C@@H]1CCCN1C(=O)[C@H](CC(C)C)NC(=O)[C@@H](NC(=O)[C@@H]1CCCN1C(=O)[C@@H](NC(=O)CN=[N+]=[N-])C(C)C)[C@@H](C)O)C(=O)N[C@H](C(=O)N1CCC[C@H]1C(=O)N[C@H](CC(C)C)C(=O)NCC(N)=O)C(C)C [grisLin] (Azidoacetyl-VPTLPLVP[dL]G-NH2)	> 64 µM	
CC(=O)N[C@@H](CCCCN=[N+]=[N-])C(=O)N[C@@H](CC(C)C)C(=O)N[C@@H](CO)C(=O)N[C@@H](CCCCN)C(=O)N[C@@H](CO)C(=O)N[C@@H](Cc1ccccc1)C(N)=O [Lin0] (Ac-[Lys(N3)]LSKSF-NH2)		time to full degradation in serum [1]: ≤ 1 h

From publication PMC12362433, “Systematic Determination of the Impact of Structural Edits on Peptide Accumulation into Mycobacteria” (ACS Chemical Biology, 2025)
